# Laboratory results as given in BindingDB's records for doi:10.1016/j.bmcl.2012.08.020 (Amgen, 2012).
# Assay: Inhibition of ACK1 in mouse C8 cells assessed as decrease in cell viability after 20 to 24 hrs
row,Compound,IC50 [nM]
1,Cc1ccccc1-c1c(-c2ccc(OCCN3CCCC3)cc2)[nH]c2ncnc(NC[C@@H]3CCCO3)c12,160
2,Fc1ccccc1-c1c(-c2ccc(OCCN3CCCC3)cc2)[nH]c2ncnc(NC[C@@H]3CCCO3)c12,40
3,CN(C)CCOc1ccc(-c2[nH]c3ncnc(NCC4SCCS4)c3c2-c2ccccc2)cc1,5
4,CN(C)CCOc1ccc(-c2oc3ncnc(NCC4SCCS4)c3c2-c2ccccc2)cc1,10
5,c1ccc(-c2c(-c3ccc(OCCN4CCCC4)cc3)[nH]c3ncnc(NCC4SCCS4)c23)cc1,10
6,CN(C)CCOc1ccc(-c2oc3ncnc(NCC4CCCS4)c3c2-c2ccccc2)cc1 (stereo not given),3000
7,CN(C)CCOc1ccc(-c2oc3ncnc(NCC4OCCO4)c3c2-c2ccccc2)cc1,2000
8,CN(C)CCOc1ccc(-c2oc3ncnc(NC[C@@H]4CCCCS4)c3c2-c2ccccc2)cc1,7160
9,CN(C)CCOc1ccc(-c2oc3ncnc(NCC4SCCCS4)c3c2-c2ccccc2)cc1,550
10,CN(C)CCOc1ccc(-c2[nH]c3ncnc(NC[C@@H]4CC[C@H]4O)c3c2-c2ccccc2)cc1,410
11,CN(C)CCOc1ccc(-c2[nH]c3ncnc(NC[C@H]4CCC[C@H]4O)c3c2-c2ccccc2)cc1,460
12,CO[C@@H]1CCC[C@@H]1CNc1ncnc2[nH]c(-c3ccc(OCCN(C)C)cc3)c(-c3ccccc3)c12,780
13,CO[C@@H]1CCC[C@H]1CNc1ncnc2[nH]c(-c3ccc(OCCN(C)C)cc3)c(-c3ccccc3)c12,1300
14,c1cncc(-c2c(-c3ccc(OCCN4CCCC4)cc3)[nH]c3ncnc(NC[C@@H]4CCCO4)c23)c1,390
15,COc1cccc(-c2c(-c3ccc(OCCN4CCCC4)cc3)[nH]c3ncnc(NC[C@@H]4CCCO4)c23)c1,160
16,c1ccc(-c2[nH]c3ncnc(NC[C@@H]4CCCO4)c3c2-c2ccccc2)cc1,620
17,COc1ccc(-c2oc3ncnc(NC[C@@H]4CCCO4)c3c2-c2ccccc2)cc1,550
18,COc1ccc(-c2[nH]c3ncnc(NC[C@@H]4CCCO4)c3c2-c2ccccc2)cc1,350
19,CS(=O)(=O)c1ccc(-c2oc3ncnc(NC[C@@H]4CCCO4)c3c2-c2ccccc2)cc1,250
20,CS(=O)(=O)c1ccc(-c2[nH]c3ncnc(NC[C@@H]4CCCO4)c3c2-c2ccccc2)cc1,100

row,Compound,IC50 [nM]
1,CN(C)S(=O)(=O)c1ccc(-c2[nH]c3ncnc(NC[C@@H]4CCCO4)c3c2-c2ccccc2)cc1,90
2,CNS(=O)(=O)c1ccc(-c2oc3ncnc(NC[C@@H]4CCCO4)c3c2-c2ccccc2)cc1,300
3,CNS(=O)(=O)c1ccc(-c2[nH]c3ncnc(NC[C@@H]4CCCO4)c3c2-c2ccccc2)cc1,40
4,CN(C)CCOc1ccc(-c2[nH]c3ncnc(NC[C@@H]4CCCO4)c3c2-c2ccccc2)cc1,20
5,c1ccc(-c2c(-c3ccc(OCCN4CCOCC4)cc3)oc3ncnc(NC[C@@H]4CCCO4)c23)cc1,160
6,c1ccc(-c2c(-c3ccc(OCCN4CCOCC4)cc3)[nH]c3ncnc(NC[C@@H]4CCCO4)c23)cc1,80
7,c1ccc(-c2c(-c3ccc(OCCN4CCCC4)cc3)[nH]c3ncnc(NC[C@@H]4CCCO4)c23)cc1,60
8,O=C1CCCN1CCOc1ccc(-c2oc3ncnc(NC[C@@H]4CCCO4)c3c2-c2ccccc2)cc1,230
9,O=C1CCCN1CCOc1ccc(-c2[nH]c3ncnc(NC[C@@H]4CCCO4)c3c2-c2ccccc2)cc1,20
10,CN(C)C(=O)c1ccc(-c2oc3ncnc(NC[C@@H]4CCCO4)c3c2-c2ccccc2)cc1,180
11,CN(C)C(=O)c1ccc(-c2[nH]c3ncnc(NC[C@@H]4CCCO4)c3c2-c2ccccc2)cc1,20
12,CNC(=O)c1ccc(-c2[nH]c3ncnc(NC[C@@H]4CCCO4)c3c2-c2ccccc2)cc1,40
13,O=C(c1ccc(-c2oc3ncnc(NC[C@@H]4CCCO4)c3c2-c2ccccc2)cc1)N1CCOCC1,190
14,O=C(c1ccc(-c2[nH]c3ncnc(NC[C@@H]4CCCO4)c3c2-c2ccccc2)cc1)N1CCOCC1,20
15,CN(C)CCOc1ccc(-c2[nH]c3ncnc(NC[C@@H]4CCCO4)c3c2C2=CCCCC2)cc1,500
16,CN(C)CCOc1ccc(-c2[nH]c3ncnc(NC[C@@H]4CCCO4)c3c2C2=CCCC2)cc1,240
17,CO[C@@H]1CC[C@H]1CNc1ncnc2[nH]c(-c3ccc(OCCN(C)C)cc3)c(-c3ccccc3)c12,420
18,CNC(=O)c1ccc(-c2oc3ncnc(NC[C@@H]4CCCO4)c3c2-c2ccccc2)cc1,2050
19,"CN(C)CCOc1ccc(-c2oc3ncnc(NC[C@@H]4CCCO4)c3c2-c2ccccc2)cc1 [(S)-6-(4-(2-(dimethylamino)ethoxy)phenyl)-5-phenyl-N-((tetrahydrofuran-2-yl)methyl)furo[2,3-d]pyrimidin-4-amine]",30
20,"c1ccc(-c2oc3nccc(NC[C@@H]4CCCO4)c3c2-c2ccccc2)cc1 [N-[(2S)-oxolan-2-ylmethyl]-2,3-diphenylfuro[2,3-b]pyridin-4-amine]",5600
